Test results: PMC9607427, “Novel 7-Chloro-(4-thioalkylquinoline) Derivatives: Synthesis and Antiproliferative Activity through Inducing Apoptosis and DNA/RNA Damage” (Pharmaceuticals, 2022)

Tests used:
Format in all cases: cell-based, human
CCRF-CEM lymphoblasts [1] = assay: Cell cycle and apoptosis analysis (propidium iodide flow cytometry); conditions: 24 h
Protocol: On the other hand, we wanted to find out whether compounds 48–50, 53, 54, 57, 59–63, 65–70, and 72 can stop the cell cycle of cancer cells, as it has been previously reported for chloroquine. For a more detailed description of the biological activity of the studied derivatives, we performed a cell cycle analysis of the most sensitive CCRF-CEM cells after 24 h of incubation with the novel 7-chloro-(4-thioalkylquinoline) derivatives (Table 4).
The effect of compounds on cell cycle distribution was determined to gain insights into the mechanism of its antiproliferative activity. […] For example, as compared with control, the percentage of cells in G2/M phases was increased by treatment with 5 × IC50 μM of compounds for 24 h (Table 4). […] As shown in (Table 4), there was a marked increase in the sub-G1 from 2.91 in untreated cells. 5-Bromo-2-deoxyuridine (BrDU) is incorporated into newly synthesized DNA, and 5-bromouridine (BrU) pulse labeling is therefore commonly used as a proliferation marker. Low BrDU and BrU incorporation into the DNA or RNA, respectively, of treated cells with all compounds at 5 × IC50 reflected inhibition of DNA and RNA synthesis, indicating irreversible apoptotic changes. The percentage of […] cells incorporating 5-bromouridine is proportional to the transcriptional activity of CCRF-CEM cells.
CCRF-CEM cells were seeded at a density of 1 × 10^6 cells per one mL in 6-well plates (TTP) and were cultivated with compounds at concentrations corresponding to 1 × or 5 × IC50 value. Together with the compounds-treated cells, a vehicle-treated sample was harvested at the same time point. After 24 h, the cells were washed with cold phosphate-buffered saline (PBS) and fixed in 70% ethanol added dropwise and stored overnight at −20 °C. Afterward, cells were washed in hypotonic citrate buffer, treated with RNase (50 µg mL^−1), and stained with propidium iodide. Flow cytometry using a 488 nm single beam laser (Becton Dickinson) was used for measurement. The cell cycle was analyzed by the software ModFitLT (Verity), and apoptosis was measured in a logarithmic model expressing the percentage of the particles with propidium content lower than cells in the G0/G1 phase (<G1) of the cell cycle. Half of the sample was used for pH3Ser10 antibody (Sigma) labeling and subsequent flow cytometry analysis of the cells in mitosis.

[2] = test system: HCT116p53−/− (HCT116 with deleted p53 gene); assay: Cytotoxic MTS assay, HCT116p53−/−
How it was run: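 Growth inhibition over 72 h at 37 °C was quantified with MTS reagent (OD 490 nm), using four-fold compound dilutions added at seeding; the 50% inhibitory concentration was reported.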

CCRF-CEM lymphoblasts [3] = assay: BrDU incorporation analysis (DNA synthesis); conditions: 24 h, 1 × IC50 (first value of cell)
[4] = 5 × IC50 (second value of cell)

Compound	>G2/M, % of Total Cellular Populations (CCRF-CEM lymphoblasts [1]; 1 × IC50 (first value of cell))	G0/G1, % of Total Cellular Populations (CCRF-CEM lymphoblasts [1]; 1 × IC50 (first value of cell))	G2/M, % of Total Cellular Populations (CCRF-CEM lymphoblasts [1]; 1 × IC50 (first value of cell))	S, % of Total Cellular Populations (CCRF-CEM lymphoblasts [1]; 1 × IC50 (first value of cell))	Sub-G1 Apoptosis, % of Total Cellular Populations (CCRF-CEM lymphoblasts [1]; 1 × IC50 (first value of cell))	>G2/M, % of Total Cellular Populations (CCRF-CEM lymphoblasts [1]; [4])	G0/G1, % of Total Cellular Populations (CCRF-CEM lymphoblasts [1]; [4])	G2/M, % of Total Cellular Populations (CCRF-CEM lymphoblasts [1]; [4])	S, % of Total Cellular Populations (CCRF-CEM lymphoblasts [1]; [4])	Sub-G1 Apoptosis, % of Total Cellular Populations (CCRF-CEM lymphoblasts [1]; [4])	IC50 [2]	DNA Synthesis (% positive of cells) (CCRF-CEM lymphoblasts [3])
COc1ccc(OC)c(C(=O)OCCS(=O)(=O)c2cc[n+]([O-])c3cc(Cl)ccc23)c1 [Compound 65, 2-[(N-Oxide 7-chloroquinolin-4-yl)sulfonyl]ethyl-2,5-dimethoxybenzoate]	7.55%	40.82%	20.04%	39.14%	17.77%	7.13%	47.21%	19.99%	32.8%	8.67%	8.26 µM	36.82%
COc1cc(OC)c(C(=O)OCCS(=O)(=O)c2cc[n+]([O-])c3cc(Cl)ccc23)cc1OC [Compound 66, 2-[(N-Oxide 7-chloroquinolin-4-yl)sulfonyl]ethyl-2,4,5-trimethoxybenzoate]	10.42%	39.53%	16.6%		2.95%	10.45%	48.53%	26.56%	24.9%	11.72%	7.94 µM	39.87%
Cc1ccc([N+](=O)[O-])c(C(=O)OCCS(=O)(=O)c2cc[n+]([O-])c3cc(Cl)ccc23)c1 [Compound 70, 2-[(N-Oxide 7-chloroquinolin-4-yl)sulfonyl]ethyl-5-methyl-2-nitrobenzoate]	10.54%	39.54%	21.99%	38.46%	3.21%	10.33%	33.44%	23.25%	43.31%	13.75%	8.75 µM	35.58%
COc1ccccc1C(=O)OCCS(=O)(=O)c1cc[n+]([O-])c2cc(Cl)ccc12 [Compound 68, 2-[(N-Oxide 7-chloroquinolin-4-yl)sulfonyl]ethyl-2-methoxybenzoate]	9.87%	35.73%	18.54%	45.73%	2.71%	9.65%	48.5%	19.64%	31.86%	7.16%	8.3 µM	41.27%
COc1ccc(C(=O)OCCS(=O)(=O)c2cc[n+]([O-])c3cc(Cl)ccc23)cc1 [Compound 63, 2-[(N-Oxide 7-chloroquinolin-4-yl)sulfonyl]ethyl-4-methoxybenzoate]	8.56%	42.76%	16.81%	40.42%	3.41%	11.38%	34.13%	17.88%	47.99%	12.97%	16.4 µM	41.06%
O=C(OCCS(=O)(=O)c1cc[n+]([O-])c2cc(Cl)ccc12)c1ccc(C(F)(F)F)cc1 [Compound 72, 2-[(N-Oxide 7-chloroquinolin-4-yl)sulfonyl]ethyl-4-(trifluoromethyl)benzoate]	8.35%	47.22%	18.46%	34.32%	4.05%	13.12%	31.36%	21.98%	46.65%	10.12%	16.4 µM	27.07%
COc1ccc(C(=O)OCCS(=O)(=O)c2cc[n+]([O-])c3cc(Cl)ccc23)cc1[N+](=O)[O-] [Compound 69, 2-[(N-Oxide 7-chloroquinolin-4-yl)sulfonyl]ethyl-4-methoxy-3-nitrobenzoate]	8.58%	43.48%	20.83%	35.7%	3.3%	12.52%	38.16%	19.27%	42.58%	13.89%	11.2 µM	34.45%
